“And” between values parts separate entries of the source, which are not always exact repeats. Equal entries are not always repeated. The source made the active and inactive calls.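 The calls were made as follows: active = compounds giving half or more protection of infected cells from virus-caused growth loss, again on retest; inactive = the rest.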 Where a SMILES comes first, the peptide text is derived from it. [ ]: non-standard residue; d: D form. The star is where a group is joined. Phe(4-NO2) = N[CH](Cc1ccc([N+](=O)[O-])cc1)C(=O)O; Boc = CC(C)(C)OC(=O)*; OtBu = CC(C)(C)O*
System: CEM cells HIV-1 protection, formazan growth assay
Experiment: NCI AIDS Antiviral Assay
Settings: for IC50: measured here: growth of uninfected CEM cells
Outline: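 Category rules: moderately active means at least 50% protection on retest, and confirmed active means 100% protection reproducibly. The underlying data came from a formazan growth assay in HIV-1-infected CEM cells.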

SMILES | EC50 [µM] | IC50 | outcome
COc1ccc(-n2c(C)nc3ccc(NC4OCC(O)C(O)C4O)cc3c2=O)cc1 (stereo not drawn) | > 200 | 69.2 µM and 45.7 µM | –
COc1ccc(Br)c(C(=O)N2CCc3ccccc32)c1N | – | – | inactive
Cc1cc(C)nc(NS(=O)(=O)c2ccc(NC(=O)c3cccc4c(Nc5ccc(S(=O)(=O)Nc6nc(C)cc(C)n6)cc5)c5ccc(Cl)cc5nc34)cc2)n1 | > 85.1 | > 85.1 µM | –
CC(=O)NCCc1c(-c2[nH]c3ccccc3c2CCNC(C)=O)[nH]c2ccccc12 | 51.3 | 107 µM | –
CCSC(=O)C1(C)OC2CCCCC2C1=O (stereo not drawn) | – | – | inactive
CCC(C)C(NC(=O)C(CCCN=C(N)N)NC(=O)C(CC(N)=O)NC(=O)C(Cc1cnc[nH]1)NC(=O)C(N)CC(C)C)C(=O)NC(C(=O)NC(CC(C)C)C(=O)NCC(=O)NC(CC(N)=O)C(=O)O)C(C)CC (stereo not drawn) (H-LHNRIILGN-OH; configuration not given here) | > 47.9 | > 47.9 µM | –
N#CCCN(CCC#N)c1ccc(/C=C2\N=C(c3cc([N+](=O)[O-])ccc3Cl)OC2=O)cc1 | > 2.34 | 0.575 µM | –
CCOC(=O)/C(C#N)=C/c1ccc([N+](=O)[O-])cc1 | > 21.4 | > 21.4 µM | –
CCCN(CCCCC(NC(C)=O)C(=O)NCc1ccccc1)C(=O)N(CCCl)N=O (stereo not drawn) | > 79.4 | > 79.4 µM | –
C=CC1(C)C=C2C(O)CC3C(C)(C(=O)OC)CCCC3(C)C2CC1 (stereo not drawn) | > 21.9 | 11 µM | –
CC(C)(C)OC(=O)NC(Cc1ccc(O)cc1)/C(O)=C(\C#N)c1c(F)c(F)c(F)c(F)c1F (stereo not drawn) | > 200 | 123 µM | –
O=C(O)c1ccc(CI)cc1 | > 200 | 24.5 µM | –
Clc1ccc2c(c1)C1C(CO2)C(c2ccccc2)=NN1c1ccccc1 (stereo not drawn) | > 27.5 | > 27.5 µM | –
COC(=O)CC(CNC(=O)OCc1ccccc1)OCc1ccc(OC)cc1 (stereo not drawn) | > 200 | > 200 µM | –
CC(=O)NC(CCC(=O)OC(C)(C)C)C(=O)NC(CCC(=O)OC(C)(C)C)C(=O)NC(Cc1ccc([N+](=O)[O-])cc1)C(=O)NC(CCCCNC(=O)OC(C)(C)C)C(=O)NC(CCCCNC(=O)OC(C)(C)C)C(=O)NCC(=O)O (stereo not drawn) (Ac-E(OtBu)E(OtBu)[Phe(4-NO2)]K(Boc)K(Boc)G-OH; configuration not given here) | > 200 | > 200 µM | –
CC(NC(C)(C)C)C(=O)c1cccc(Cl)c1 (stereo not drawn) | > 200 | > 200 µM | –
COc1cc(CNC(=O)CCCCCCCCCCSC#N)ccc1O | > 200 | 27.5 µM | –
N#Cc1c(N)[nH]c(S)c1C#N | > 123 | 72.4 µM | –
CSC1=N/C(=C\c2ccc(C)cc2)C(=O)N1CN1CCCCC1 | > 200 | > 200 µM | –
C/C(=C\CNc1ncnc2nc(Cl)[nH]c12)CO | > 200 | > 200 µM | –

SMILES | EC50 [µM] | IC50 | outcome
COc1ccccc1/C=C1/Sc2scc(CC(=O)Nc3ccccc3)[n+]2C1=O | – | 28.8 µM | inactive
CC(C)(C)Nc1noc(=O)n1C(C)(C)C | > 100 | > 100 µM | –
CC(NS(=O)(=O)c1ccc([N+](=O)[O-])cc1)C(=O)O (stereo not drawn) | – | – | inactive
Nc1nc2c(c(-c3ccccc3Cl)n1)COC/C2=C\c1ccccc1Cl | – | – | inactive
COC[C@@]12CCC(OC)C34[C@@H]5C[C@@]6(O)C(OC(=O)c7ccccc7)[C@@H]5[C@@]5(O[C@@H]5[C@@H]6OC)[C@@H](C(OC)[C@@H]31)[C@@H]4N(C)C2 (stereo partly drawn) | – | – | inactive
NC1C2CN3CCC(O2)C13 (stereo not drawn) | – | – | inactive
CCC1CC[N-]CC1.CCC1CC[N-]CC1.CCC1CC[N-]CC1.CCC1CC[N-]CC1.N#C[S-].N#C[S-].[Mn] | > 200 | 27.5 µM | –
COc1cc(COC(=O)NC(Cc2cccs2)C(=O)O)c([N+](=O)[O-])cc1OC (stereo not drawn) | > 603 | 427 µM | –
CC(=C(C#N)C#N)c1ccc(F)cc1 | > 138 | 112 µM | –
O=C(O)C[C@H](Cl)[C@H](NC(=O)OCc1ccccc1)C(=O)O | – | – | inactive
OCC1CC2c3[nH]c4ccccc4c3CCN2C1 (stereo not drawn) | > 282 | > 282 µM | –
C1C2CC3C1C1C[S+]3CC21 (stereo not drawn) | > 380 | > 380 µM | –
COC1=C(C)C(=O)c2nccc(C)c2C1=O | – | – | inactive
NC(=O)CNC(=O)[C@@H]1CC(OCCC(=O)O)CN1C(=O)C1CCCN1C(=O)OCc1ccccc1 (stereo partly drawn) | > 200 | > 200 µM | –
CNC(=O)NCCCCC(NC(C)=O)C(=O)NCc1ccccc1 (stereo not drawn) | > 741 | > 741 µM | –
NC1=NN(c2ccccc2)C(=O)C1C(=O)C(=O)NC1C2CC3CC(C2)CC1C3 (stereo not drawn) | > 13.8 | > 13.8 µM | –
COC1/C=C/C=C/C=C/CC(OC(=O)C(C)NC(=O)C2CCCCC2)C(C)C(O)/C(C)=C\CCc2c(O)c(cc3c2SCC(=O)N3)NC(=O)C1 (stereo not drawn) | > 2 | 0.229 µM | –
COc1ccc(/C=C2\CCS(=O)(=O)c3ccccc3C2=O)cc1 | > 200 | 16.6 µM | –
COc1ccccc1-c1cc(=O)c2cc(C)c(C)c(C(=O)O)c2o1 | – | – | inactive
Cc1ccc(N2C(=O)/C(=C/c3ccc(N(CCC#N)CCC#N)cc3)CC2(O)c2ccccc2)cc1 (stereo not drawn) | > 7.94 | > 7.94 µM | –

SMILES | EC50 [µM] | IC50 | outcome
O=C(N1CCCCC(Cl)(Cl)C1=O)C(Cl)(Cl)Cl | > 759 | > 759 µM | –
O=[N+]([O-])c1ccc2[nH]c(=S)[nH]c(=S)c2c1 | > 200 | – | –
Cc1ccc(-c2cc(-c3ccco3)c(C#N)c(=S)n2C2OC(CO)C(O)C(O)C2O)cc1 (stereo not drawn) | > 200 | 9.33 µM and 57.5 µM | –
N#CC(C#N)=Cc1ccc(SCc2ccc(Cl)cc2)cc1 | > 200 | 135 µM | –
CCC1(CCCC=C(c2cc(Cl)c(OC)c(CO)c2)c2cc(Cl)c(OC)c(CO)c2)OCCO1 | > 200 | 11.7 µM | –
O=C(CO)C1CC2C=CC1C2 (stereo not drawn) | – | – | inactive
CC1=NN(c2nc(N)nc(NS(=O)(=O)c3cc(C)c(Cl)cc3S)n2)C(C)(C)C1 | 105 | 479 µM | –
O=C1N[C@H]2[C@H](CS[C@H]2CCCCC(=O)N(CCP(c2ccccc2)c2ccccc2)CCP(c2ccccc2)c2ccccc2)N1 | > 14.8 | > 14.8 µM | –
C=CCSCCOCn1cc(C)c(=O)[nH]c1=O | > 200 | > 200 µM | –
Oc1cc2c(cc1C(c1cc3c(cc1O)OCO3)c1cc3c(cc1O)OCO3)OCO2 | > 117 | 22.4 µM | –
c1ccc2c(c1)C1CCCCCC21N1CCOCC1 (stereo not drawn) | > 200 | 170 µM | –
COc1ccc(C(=O)/C=C/c2cccnc2)cc1OC | > 200 | 2.75 µM | –
CN1C2Cc3cc4c(cc3[C@@]23Cc2ccc5c(c2[C@@H]1O3)OCO5)OCO4 (stereo partly drawn) | > 200 | 120 µM | –
CC(=O)NCCC1CNc2ccccc21 (stereo not drawn) | > 200 | > 200 µM | –
O=C(/C=C/c1ccsc1)c1ccc(Cl)s1 | > 200 | – | –
O=[n+]1cnn([O-])c2ccccc21 | > 200 | 3.63 µM | –
O=c1c2ccccc2c2nccc3c4ccccc4n1c32 | > 37.2 | > 37.2 µM | –
O=S(=O)(O)c1cc(Nc2ccnc3ccccc23)c2c(S(=O)(=O)O)cc(S(=O)(=O)O)cc2c1 | > 200 | > 200 µM | –
COc1cc(C)c(Br)c2ccc(Br)c(O)c12 | > 200 | > 200 µM | –
COc1cc2c3c(c1)SCC(=O)N3CCN2 | > 200 | > 100 µM | –

— PubChem BioAssay AID179 (DTP/NCI, 2004)
